Read-outs that look alike come from different tables or passages of the source.
Tests used:
HDAC-6 = biological target: T1, HDAC-6 (Homo sapiens, UniProt Q9UBN7)
T1 sequence (Q9UBN7 1-1215): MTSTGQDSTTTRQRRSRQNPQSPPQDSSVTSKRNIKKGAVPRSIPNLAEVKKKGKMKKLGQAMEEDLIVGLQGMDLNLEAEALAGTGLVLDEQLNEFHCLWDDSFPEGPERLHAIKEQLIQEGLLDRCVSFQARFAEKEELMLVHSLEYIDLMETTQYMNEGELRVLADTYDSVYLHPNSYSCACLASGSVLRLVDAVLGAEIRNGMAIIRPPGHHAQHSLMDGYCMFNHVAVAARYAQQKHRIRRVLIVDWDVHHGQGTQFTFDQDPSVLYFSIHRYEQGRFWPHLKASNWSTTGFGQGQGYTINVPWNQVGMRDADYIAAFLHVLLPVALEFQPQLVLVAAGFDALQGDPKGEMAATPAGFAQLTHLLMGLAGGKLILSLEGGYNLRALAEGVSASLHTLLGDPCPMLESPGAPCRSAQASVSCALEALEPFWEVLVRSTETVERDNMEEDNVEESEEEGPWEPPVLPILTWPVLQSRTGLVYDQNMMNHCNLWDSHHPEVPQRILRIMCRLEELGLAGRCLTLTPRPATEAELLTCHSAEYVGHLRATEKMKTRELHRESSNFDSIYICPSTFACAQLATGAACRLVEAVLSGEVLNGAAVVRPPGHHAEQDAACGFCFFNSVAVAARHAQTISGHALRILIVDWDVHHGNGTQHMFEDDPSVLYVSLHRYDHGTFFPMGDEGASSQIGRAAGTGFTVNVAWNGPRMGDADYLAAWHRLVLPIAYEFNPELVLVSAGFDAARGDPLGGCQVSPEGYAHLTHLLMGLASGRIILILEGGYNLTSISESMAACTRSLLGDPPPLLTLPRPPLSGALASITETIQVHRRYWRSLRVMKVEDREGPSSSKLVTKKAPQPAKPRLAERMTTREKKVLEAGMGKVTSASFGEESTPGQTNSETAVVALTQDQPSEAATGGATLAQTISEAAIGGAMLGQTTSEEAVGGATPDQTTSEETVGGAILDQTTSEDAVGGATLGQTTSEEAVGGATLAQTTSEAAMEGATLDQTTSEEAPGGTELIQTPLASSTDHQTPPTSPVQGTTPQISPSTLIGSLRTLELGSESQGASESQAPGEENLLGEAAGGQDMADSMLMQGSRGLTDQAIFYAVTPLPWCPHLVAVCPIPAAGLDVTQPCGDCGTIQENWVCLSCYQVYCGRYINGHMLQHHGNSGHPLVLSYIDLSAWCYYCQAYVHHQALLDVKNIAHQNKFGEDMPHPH

[1] = tested on: ovalbumin (OVA)-induced AAD
[2] = 5 mg/kg intraperitoneally following each OVA nebulization, compared to ovalbumin-sensitized mice

C[S@@+]([O-])CCCCN=C=S [LSF, (R)-1-Isothiocyanato-4-(methylsulfinyl)butane]
HILLSLOPE (HDAC-6; HDAC-6): −0.88 | binding to HDAC 6 (in words) (HDAC-6; more subtle than Trichostatin A): specific binding | airway wall thickness [1, 2]: reductions | goblet cell hyperplasia [1, 2]: reductions | inflammation [1, 2]: reductions | Annexin V staining (apoptosis) in lung tissue ([1]; OVA-LSF 5 mg/kg, strong staining in OVA-VEH): Weak | NES (Horse PBMC; ENCODE TF target set GM12878RAD21 (r27)): −3.95 | NES (Horse PBMC; ENCODE TF target set GM12878_RAD21 (r28)): −3.79 | NES (Horse PBMC; ENCODE TF target set GM12878_YY1): 3.41 | NES (Horse PBMC; ENCODE TF target set GM12878_ZBTB33 (r17)): 3.05 | NES (Horse PBMC; ENCODE TF target set GM12878_ZBTB33 (r21)): 2.89 | NES (Horse PBMC; ENCODE TF target set H1HESC_POL2 (r12)): 3.34 | NES (Horse PBMC; ENCODE TF target set H1HESC_POL2 (r13)): 3.33 | NES (Horse PBMC; ENCODE TF target set H1NEURONS_NRSF): 2.84 | NES (Horse PBMC; ENCODE TF target set HEPG2_GRP20_FORSKLN): 3.01 | NES (Horse PBMC; ENCODE TF target set HEPG2_ZBTB33 (r11)): 3.35 | NES (Horse PBMC; ENCODE TF target set HEPG2_ZBTB33 (r14)): 3.23 | NES (Horse PBMC; ENCODE TF target set K562_KAP1): 3.04 | NES (Horse PBMC; ENCODE TF target set K562_STAT1_IFNA6H): −4.54 | NES (Horse PBMC; ENCODE TF target set K562_STAT2_IFNA6H): −4.45 | NES (Horse PBMC; ENCODE TF target set K562_TR4UCD): 3.13 | NES (Horse PBMC; ENCODE TF target set K562_ZBTB33): 2.78 | NES (Horse PBMC; ENCODE TF target set MCF10AES_STAT3): −3.75 | NES (Horse PBMC; ENCODE TF target set SHSY5Y_GATA3): 3.13 | NES (Horse PBMC; ENCODE TF target set SKNMC_POL2): 2.91 | NES (Horse PBMC; ENCODE TF target set U2OS_SETDB1): 2.83 | expression of CD markers, immunoglobulin containing genes and interleukins (Horse PBMC; LSF vs control): strongly down-regulated | pathways related to interferon signalling, STAT1/2 targets and autoimmune/auto-inflammatory diseases (Horse PBMC; LSF vs control): strongly downregulated | NES (Horse PBMC; MSigDB gene set ATGTTAA, MIR-302C): 4.19 | NES (Horse PBMC; MSigDB gene set CHEN HOXA5 TARGETS 9HR UP): 4.3 | NES (Horse PBMC; MSigDB gene set CTTGTAT, MIR-381): 4.1 | NES (Horse PBMC; MSigDB gene set FULCHER INFLAMMATORY RESPONSE LECTIN VS LPS DN): −5.59 | NES (Horse PBMC; MSigDB gene set GABRIELY MIR21 TARGETS): 3.8 | NES (Horse PBMC; MSigDB gene set GCM DFFA): 4.6 | NES (Horse PBMC; MSigDB gene set GCM MLL): 4.08 | NES (Horse PBMC; MSigDB gene set GCM MYST2): 4.99 | NES (Horse PBMC; MSigDB gene set GCM RAB10): 3.8 | NES (Horse PBMC; MSigDB gene set GCM SUFU): 4.3 | NES (Horse PBMC; MSigDB gene set GCM UBE2N): 4.65 | NES (Horse PBMC; MSigDB gene set GCM ZNF198): 4.95 | NES (Horse PBMC; MSigDB gene set GSE10239 NAIVE VS MEMORY CD8 TCELL UP): 4.2 | NES (Horse PBMC; MSigDB gene set GSE10325 CD4 TCELL VS MYELOID DN): −6.35 | NES (Horse PBMC; MSigDB gene set GSE10325 LUPUS BCELL VS LUPUS MYELOID DN): −6.47 | NES (Horse PBMC; MSigDB gene set GSE10325 LUPUS CD4 TCELL VS LUPUS MYELOID DN): −7.15 | NES (Horse PBMC; MSigDB gene set GSE11057 CD4 EFF MEM VS PBMC DN): −5.63 | NES (Horse PBMC; MSigDB gene set GSE13485 CTRL VS DAY3 YF17D VACCINE PBMC DN): −5.66 | NES (Horse PBMC; MSigDB gene set GSE13485 CTRL VS DAY7 YF17D VACCINE PBMC DN): −6.96 | NES (Horse PBMC; MSigDB gene set GSE13485 DAY3 VS DAY7 YF17D VACCINE PBMC DN): −5.63 | NES (Horse PBMC; MSigDB gene set GSE13485 DAY7 VS DAY21 YF17D VACCINE PBMC UP): −5.61 | NES (Horse PBMC; MSigDB gene set GSE22866 NAIVE CD4 TCELL VS MONOCYTE DN): −5.6 | NES (Horse PBMC; MSigDB gene set GSE24634 IL4 VS CTRL TREATED NAIVE CD4 TCELL DAY5 UP): −5.8 | NES (Horse PBMC; MSigDB gene set GSE24634 TREG VS TCONV POST DAY10 IL4 CONVERSION DN): −5.97 | NES (Horse PBMC; MSigDB gene set GSE29617 CTRL VS DAY3 TIV FLU VACCINE PBMC 2008 UP): 4.12 | NES (Horse PBMC; MSigDB gene set GSE29618 BCELL VS MDC DAY7 FLU VACCINE DN): −5.93

Reference: US9532970B2, “Compositions for anti-inflammatory, antioxidant effects and improved respiratory function by specific histone deacetylase inhibition” (priority 2014, dated 2017)
